For one compound, inhibition results are on record in paper PMC6934184, “Selective DNA-PKcs inhibition extends the therapeutic index of localized radiotherapy and chemotherapy” (The Journal of Clinical Investigation, 2019).

By inhibition is commonly meant the drop in the measured response relative to a control, in per cent. Higher therefore signals strong suppression.

This test addresses T1, CAMK1 (CaMK1) (Homo sapiens, UniProt Q14012).
T1 construct: purchased Thermo Fisher Scientific (Life Technologies) SelectScreen
Put plainly: SelectScreen Adapta. The class given is biochemical. To be noted: ATP 10 µM. The method, then:
The in vitro kinase selectivity of NU5455 was determined using the SelectScreen Broad Assay Panel (Thermo Fisher Scientific) involving activity and binding assays (Supplemental Table 1). […] Class IA PI3Ks were measured using the p85α subunit.
Kinase [ATP] % Assay Kinase [ATP] % Assay Kinase [ATP] % Assay Kinase [ATP] % Assay
DNA-PK Km app 98.3 Z LATS2 n/a 4.7 L KIT D820E n/a 1.3 L GSK3B (GSK3 beta) Km app -2.5 Z
PIK3C3 (hVPS34) Km app 85.9 A PRKCZ (PKC zeta) Km app 4.7 Z GRK1 n/a 1.3 L BMPR2 n/a -2.5 L
PIK3C2B (PI3K-C2 beta) 10 28.9 A FGFR1 Km app 4.7 Z BRSK2 n/a 1.2 L CDC42 BPB (MRCKB) Km app -2.5 Z
SNF1LK2 Km app 26.6 Z MINK1 Km app 4.6 Z NUAK1 (ARK5) Km app 1.2 A AMPK (A2/B2/G2) n/a -2.6 L
HCK Km app 18.0 Z CSF1R (FMS) Km app 4.3 Z CDK9/cyclin K n/a 1.0 L PRKG1 Km app -2.7 Z
NEK2 Km app 17.8 Z CSNK1G3 (CK1 gamma 3) Km app 4.2 Z NUAK2 n/a 1.0 L KIT T670E n/a -2.8 L
ALK Km app 17.3 Z STK32C (YANK3) n/a 4.2 L CDK2/cyclin O n/a 0.9 L ERBB4 (HER4) Km app -2.8 Z
FGFR3 K650M n/a 16.5 L STK22D (TSSK1) Km app 4.2 Z CAMKK2 (CaMKK beta) n/a 0.9 L PLK4 n/a -2.8 L
SIK3 n/a 16.1 L TAOK3 (JIK) n/a 4.2 L FGFR3 Km app 0.9 Z GRK7 Km app -3.0 Z
LYN A Km app 15.2 Z RPS6KA4 (MSK2) Km app 4.2 Z ULK2 n/a 0.9 L MAPKAPK2 Km app -3.1 Z
BMPR1B (ALK6) n/a 14.5 L PTK2B (FAK2) Km app 4.2 Z KIT D816V n/a 0.9 L FGFR4 Km app -3.1 Z
INSRR (IRR) Km app 14.1 Z CLK2 Km app 4.1 Z CAMK1 (CaMK1) 10 0.8 A CASK n/a -3.1 L
PLK2 Km app 14.1 Z STK24 (MST3) Km app 4.1 Z PTK6 (Brk) Km app 0.7 Z GRK5 Km app -3.2 Z
PRKACA (PKA) Km app 14.0 Z CAMK1D (CaMKI delta) Km app 4.1 Z CAMK2B (CaMKII beta) Km app 0.7 Z EGFR (ErbB1) T790M Km app -3.3 Z
EIF2AK2 (PKR) n/a 13.3 L INSR Km app 4.1 Z ACVR1 (ALK2) n/a 0.7 L PAK4 Km app -3.3 Z
PRKX Km app 12.5 Z IRAK1 Km app 4.0 A ABL1 H396P n/a 0.6 L DAPK3 (ZIPK) Km app -3.4 Z
FGR Km app 12.1 Z SRC N1 Km app 3.9 Z MERTK (cMER) A708S n/a 0.6 L RET M918T n/a -3.5 L
CLK1 Km app 11.7 Z SRPK2 Km app 3.9 Z MAPKAPK5 (PRAK) Km app 0.6 Z PRKCQ (PKC theta) Km app -3.7 Z
MARK3 Km app 11.4 Z RPS6KA6 (RSK4) Km app 3.8 Z AKT1 (PKB alpha) Km app 0.5 Z CAMKK1 (CAMKKA) n/a -3.8 L
PDGFRB (PDGFR beta) Km app 11.0 Z GRK6 Km app 3.7 Z NTRK3 (TRKC) Km app 0.4 Z FLT3 D835Y Km app -3.9 Z
PRKCN (PKD3) Km app 10.7 Z PKN1 (PRK1) Km app 3.6 Z ZAP70 Km app 0.3 Z ROCK2 Km app -4.1 Z
STK16 (PKL12) n/a 10.5 L MAP3K8 (COT) 100 3.5 Z CSNK1A1 (CK1 alpha 1) Km app 0.3 Z CHUK (IKK alpha) Km app -4.2 A
FES (FPS) Km app 10.4 Z FLT4 (VEGFR3) Km app 3.5 Z MYLK (MLCK) n/a 0.2 L AXL Km app -4.2 Z
ABL1 Km app 10.4 Z GRK4 Km app 3.5 Z MKNK2 (MNK2) n/a 0.2 L PIM2 Km app -4.3 Z
MUSK Km app 10.3 Z FRK (PTK5) Km app 3.4 Z AMPK (A1/B1/G3) n/a 0.2 L PAK1 Km app -4.4 Z
MAPK1 (ERK2) Km app 10.1 Z FYN A n/a 3.3 L MAP3K2 (MEKK2) n/a 0.1 L BMPR1A (ALK3) n/a -4.4 L
BRAF 100 9.9 Z CDK1/cyclin A2 n/a 3.3 L CDK8/cyclin C n/a 0.1 L STK4 (MST1) Km app -4.4 Z
IGF1R Km app 9.7 Z KIT V559D T670I n/a 3.1 L MARK2 Km app 0.1 Z PRKCH (PKC eta) Km app -4.6 Z
MAPK14 (p38 alpha) Km app 9.7 Z SPHK2 10 3.1 A ICK n/a 0.0 L SGKL (SGK3) Km app -4.6 Z
LCK Km app 9.6 Z FGFR3 G697C n/a 3.1 L FGFR2 Km app 0.0 Z PI4KB (PI4K beta) Km app -4.7 A
MAPK11 (p38 beta) Km app 9.5 Z RIPK2 n/a 3.1 L AKT2 (PKB beta) Km app 0.0 Z PRKCE (PKC epsilon) Km app -4.9 Z
SRC Km app 9.5 Z PAK6 Km app 3.0 Z EPHB2 Km app -0.1 Z PHKG1 Km app -5.0 Z
CHEK1 (CHK1) Km app 9.3 Z LYN B Km app 3.0 Z TGFBR2 n/a -0.1 L PDGFRA D842V Km app -5.0 Z
CAMK2D (CaMKII delta) Km app 9.3 Z DAPK2 n/a 2.9 L TEK (Tie2) Km app -0.1 Z PRKG2 (PKG2) Km app -5.1 Z
PLK1 Km app 9.2 Z EPHA4 Km app 2.9 Z AURKA (Aurora A) Km app -0.1 Z TYRO3 (RSE) Km app -5.1 Z
RET Y791F Km app 9.2 Z PIK3CG (p110 gamma) Km app 2.9 A KIT D816H n/a -0.2 L TAOK2 (TAO1) Km app -5.1 Z
FLT3 Km app 9.1 Z HIPK1 (Myak) Km app 2.8 Z KIT N822K n/a -0.2 L EPHB4 Km app -5.3 Z
MAPK10 (JNK3) 100 9.0 Z ADRBK2 (GRK3) Km app 2.8 Z PRKACG (PRKAC gamma) n/a -0.2 L AURKC (Aurora C) Km app -5.4 Z
CSNK2A2 (CK2 alpha 2) Km app 8.7 Z STK17B (DRAK2) n/a 2.7 L TEK (TIE2) Y1108F n/a -0.3 L JAK1 Km app -5.7 Z […]

T1 sequence (Q14012 whole entry): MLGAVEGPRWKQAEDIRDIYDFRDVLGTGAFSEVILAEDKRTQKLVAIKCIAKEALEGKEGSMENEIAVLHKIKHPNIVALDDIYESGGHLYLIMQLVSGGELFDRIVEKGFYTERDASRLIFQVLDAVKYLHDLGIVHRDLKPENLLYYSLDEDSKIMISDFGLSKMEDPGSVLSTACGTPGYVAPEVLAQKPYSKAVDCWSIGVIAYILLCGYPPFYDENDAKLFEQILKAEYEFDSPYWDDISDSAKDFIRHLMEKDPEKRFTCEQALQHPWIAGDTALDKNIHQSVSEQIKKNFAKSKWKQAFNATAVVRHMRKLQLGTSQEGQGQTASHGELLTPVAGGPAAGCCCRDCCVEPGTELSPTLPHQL

On to `CN(C(=O)CN1CCOCC1)c1ccc2sc3c(-c4cccc5c(=O)cc(N6CC7CCC(C6)O7)oc45)cccc3c2c1` [NU5455], for which 1 µM produced 0.8% inhibition.
